# Patent publication US7253282B2 (Hoffman-La Roche Inc., priority 2004, dated 2007)
# Assays:
# [1] = biological target: T1, GST-LXRα-LBD (human LXR alpha, aa 164 to 447) (Homo sapiens, UniProt Q13133); assay: Radioligand binding assay (SPA), LXR alpha; settings: GST-LXRα-LBD on SPA beads, read-out: LXRalpha Binding IC50
# T1 construct: human LXR alpha (aa 164 to 447); made in house; host or cells: E. coli BL21(pLysS)
# T1 sequence (Q13133 164-447): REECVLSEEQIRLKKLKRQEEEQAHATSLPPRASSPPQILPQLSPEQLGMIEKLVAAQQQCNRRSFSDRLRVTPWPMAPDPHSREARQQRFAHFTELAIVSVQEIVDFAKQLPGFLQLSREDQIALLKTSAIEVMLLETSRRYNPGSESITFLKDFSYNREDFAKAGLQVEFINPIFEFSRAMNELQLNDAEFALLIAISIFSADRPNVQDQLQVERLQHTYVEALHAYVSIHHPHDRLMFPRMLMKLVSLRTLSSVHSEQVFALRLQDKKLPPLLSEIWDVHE
# Text: (§1) Mammalian expression vectors were constructed to express full-length human LXR alpha and LXR beta. Bacterial expression vectors were constructed to produce glutathione-s-transferase (GST) fused to the ligand binding domains (LBD) of human LXR alpha (aa 164 to 447) and human LXR beta (aa 155 to 460). To accomplish this, the portions of the sequences encoding the LBDs were amplified from full-length clones by PCR and then subcloned into the plasmid vectors. Final clones were verified by DNA sequence analysis (Willy et al., Genes Dev. 1995, 9:1033-45; Song et al., Proc Natl Acad Sci USA. 1994, 91:10809-13).
# (§2) Induction, expression, and purification of GST-LBD fusion proteins were performed in E. coli strain BL21(pLysS) cells by standard methods (Ref: Current Protocols in Molecular Biology, Wiley Press, edited by Ausubel et al).
# (§3) LXR alpha and LXR beta receptor binding were assayed in buffer consisting of 50 mM HEPES, pH 7.4, 10 mM NaCl, 5 mM MgCl2. For each 96-well reaction, 500 ng of GST-LXRα-LBD or 700 ng of GST-LXR beta-LBD fusion proteins were bound to 80 μg or 40 μg SPA beads (Pharmacia Amersham) respectively, in a final volume of 50 μl by shaking. […] All binding assays were performed in 96-well plates and the amount of bound ligand was measured on a Packard TopCount using OptiPlates (Packard). Dose response curves were measured within a range of concentration from 10^−10 M to 10^−4 M.
# [2] = biological target: T2, GST-LXR beta-LBD (human LXR beta, aa 155 to 460) (Homo sapiens, UniProt P55055); assay: Radioligand binding assay (SPA), LXR beta; settings: GST-LXR beta-LBD on SPA beads, read-out: LXRbeta Binding IC50
# T2 construct: human LXR beta (aa 155 to 460); made in house; host or cells: E. coli BL21(pLysS)
# T2 sequence (P55055 155-460): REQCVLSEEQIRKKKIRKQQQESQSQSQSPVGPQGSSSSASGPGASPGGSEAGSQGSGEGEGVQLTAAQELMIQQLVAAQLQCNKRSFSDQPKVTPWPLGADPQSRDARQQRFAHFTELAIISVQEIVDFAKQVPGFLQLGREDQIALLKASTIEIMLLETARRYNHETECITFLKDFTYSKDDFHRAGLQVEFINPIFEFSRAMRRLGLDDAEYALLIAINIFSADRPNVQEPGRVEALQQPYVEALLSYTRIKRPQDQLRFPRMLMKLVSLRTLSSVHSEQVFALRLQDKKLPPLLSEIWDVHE
# Text: as §1, §2, §3
IC50 [1],IC50 [2],Compound
20 nM,70 nM,"O=S(=O)(c1ccccc1)N(CC(F)(F)F)[C@H]1CC[C@H](C(O)(C(F)(F)F)C(F)(F)F)CC1 [Example 1, trans N-(2,2,2-trifluoro-ethyl)-N-[4-(2,2,2-trifluoro-1-hydroxy-1-trifluoromethyl-ethyl)-cyclohexyl]-benzenesulfonamide]"
1500 nM,1400 nM,Cc1nn(C)c(Cl)c1S(=O)(=O)N(CC(F)(F)F)[C@H]1CC[C@H](C(O)(C(F)(F)F)C(F)(F)F)CC1 [Example 17]
